Measured values reported in patent publication US20260297070A1, “CYCLIC [COMPOUND LEFT OUT] WRN INHIBITORS” (Nimbus Wadjet, Inc., priority 2023, published 2026).

Each molecule was assayed against T1, human Werner helicase (WRN-BV08, Uniprot Q14191, amino acids 517-1235 with L1074F point mutation) (Homo sapiens, UniProt Q14191, L1074F) (assay: WRN (BV08) ADP-Glo Assay). Details: 0.15 nM WRN, 5 μM ATP, 0.1 nM DNA duplex, 15 min preincubation, 60 min at 25° C., pH 7.5, 1% DMSO; read-out: ADP-Glo_hWRN_IC50.
T1 construct: Uniprot Q14191, amino acids 517-1235 with L1074F point mutation; TEV-cleavable 8×His (C, cleaved yes); made in house; host or cells: Sf9 insect cells (baculovirus)
Assay type: biochemical
In short: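 Untagged WRN (Sf9-expressed, TEV-cleaved) at 0.15 nM was preincubated 15 min at 25 °C with compound, then reacted 60 min at 25 °C with 5 μM ATP and 0.1 nM DNA duplex in Bicine pH 7.5, 1 mM MgCl2. ADP-Glo luminescence gave % inhibition; IC50 by four-parameter fit.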

T1 sequence (Q14191 with tags, fused parts or gaps L1074F limits assumed): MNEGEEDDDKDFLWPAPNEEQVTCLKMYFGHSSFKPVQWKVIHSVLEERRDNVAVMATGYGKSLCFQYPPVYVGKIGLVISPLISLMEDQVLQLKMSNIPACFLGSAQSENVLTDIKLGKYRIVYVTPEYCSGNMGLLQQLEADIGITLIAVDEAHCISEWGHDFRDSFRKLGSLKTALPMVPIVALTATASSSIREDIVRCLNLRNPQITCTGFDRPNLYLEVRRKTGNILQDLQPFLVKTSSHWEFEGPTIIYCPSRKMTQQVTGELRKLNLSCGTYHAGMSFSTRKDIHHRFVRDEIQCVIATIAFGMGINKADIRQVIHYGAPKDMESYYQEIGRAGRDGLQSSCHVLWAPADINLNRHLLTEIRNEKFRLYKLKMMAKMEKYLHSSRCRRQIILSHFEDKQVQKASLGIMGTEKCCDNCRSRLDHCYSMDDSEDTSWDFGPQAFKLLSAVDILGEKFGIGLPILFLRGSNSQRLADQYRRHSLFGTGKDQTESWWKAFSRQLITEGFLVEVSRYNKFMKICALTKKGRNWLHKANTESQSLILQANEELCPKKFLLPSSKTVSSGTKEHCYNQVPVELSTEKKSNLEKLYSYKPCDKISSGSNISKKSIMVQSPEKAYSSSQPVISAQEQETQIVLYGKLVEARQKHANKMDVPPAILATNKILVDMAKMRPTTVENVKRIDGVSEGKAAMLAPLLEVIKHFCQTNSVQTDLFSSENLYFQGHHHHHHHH

| Structure (SMILES) | IC50 [µM] |
| --- | --- |
| O=C(Cc1coc(-c2ccc(F)c(F)c2)n1)N(Cc1ccncc1)C1C=CS(=O)(=O)C1 (centres unmarked) [I-410, 2-[2-(3,4-difluorophenyl)-1,3-oxazol-4-yl]-N-(1,1-dioxo-2,3-dihydro-1lambda6-thiophen-3-yl)-N-[(pyridin-4-yl)methyl]acetamide] | > 50 |
| COc1ccc2[nH]c(CC(=O)N(Cc3ccncc3)C3C=CS(=O)(=O)C3)cc2c1 (centres unmarked) [I-412, N-(1,1-dioxo-2,3-dihydro-1lambda6-thiophen-3-yl)-2-(5-methoxy-1H-indol-2-yl)-N-[(pyridin-4-yl)methyl]acetamide] | > 50 |
| O=C(CCc1[nH]nc2ccccc12)N(Cc1ccncc1)C1C=CS(=O)(=O)C1 (centres unmarked) [I-413, N-(1,1-dioxo-2,3-dihydro-1lambda6-thiophen-3-yl)-3-(2H-indazol-3-yl)-N-[(pyridin-4-yl)methyl]propanamide] | > 50 |
| O=C(Cc1ccc2c[nH]nc2c1)N(Cc1ccncc1)C1C=CS(=O)(=O)C1 (centres unmarked) [I-414, N-(1,1-dioxo-2,3-dihydro-1lambda6-thiophen-3-yl)-2-(2H-indazol-6-yl)-N-[(pyridin-4-yl)methyl]acetamide] | > 50 |
| O=C(CC1CCC(c2ccccc2)CC1)N(Cc1ccncc1)C1C=CS(=O)(=O)C1 (centres unmarked) [I-416, N-(1,1-dioxo-2,3-dihydro-1lambda6-thiophen-3-yl)-2-(4-phenylcyclohexyl)-N-[(pyridin-4-yl)methyl]acetamide] | > 50 |
| O=C(Cc1c[nH]c2cc(Cl)ccc12)N(Cc1ccncc1)C1C=CS(=O)(=O)C1 (centres unmarked) [I-417, 2-(6-chloro-1H-indol-3-yl)-N-(1,1-dioxo-2,3-dihydro-1lambda6-thiophen-3-yl)-N-[(pyridin-4-yl)methyl]acetamide] | > 50 |
| Cc1c(CC(=O)N(Cc2ccncc2)C2C=CS(=O)(=O)C2)c(=O)[nH]c2ccccc12 (centres unmarked) [I-418, N-(1,1-dioxo-2,3-dihydro-1lambda6-thiophen-3-yl)-2-(4-methyl-2-oxo-1,2-dihydroquinolin-3-yl)-N-[(pyridin-4-yl)methyl]acetamide] | > 50 |
| O=C(Cc1ccc(-n2cccn2)cc1)N(Cc1ccncc1)C1C=CS(=O)(=O)C1 (centres unmarked) [I-419, N-(1,1-dioxo-2,3-dihydro-1lambda6-thiophen-3-yl)-2-[4-(1H-pyrazol-1-yl)phenyl]-N-[(pyridin-4-yl)methyl]acetamide] | > 50 |
| O=C(Cn1cnc(-c2ccccc2)n1)N(Cc1ccncc1)C1C=CS(=O)(=O)C1 (centres unmarked) [I-420, N-(1,1-dioxo-2,3-dihydro-1lambda6-thiophen-3-yl)-2-(3-phenyl-1H-1,2,4-triazol-1-yl)-N-[(pyridin-4-yl)methyl]acetamide] | > 50 |
| O=C(Cc1ccc(-n2cccc2)cc1)N(c1ccccc1)C1C=CS(=O)(=O)C1 (centres unmarked) [I-421, N-(1,1-dioxo-2,3-dihydro-1lambda6-thiophen-3-yl)-N-phenyl-2-[4-(1H-pyrrol-1-yl)phenyl]acetamide] | > 50 |
| O=C(C1Cc2ccc(-n3cccc3)cc2C1)N(Cc1ccncc1)C1C=CS(=O)(=O)C1 (centres unmarked) [I-422, N-(1,1-dioxo-2,3-dihydro-1lambda6-thiophen-3-yl)-N-[(pyridin-4-yl)methyl]-5-(1H-pyrrol-1-yl)-2,3-dihydro-1H-indene-2-carboxamide] | > 50 |
| O=C(c1c[nH]c2cc(-c3ccc(F)cc3)ccc12)N(Cc1ccncc1)C1C=CS(=O)(=O)C1 (centres unmarked) [I-423, N-(1,1-dioxo-2,3-dihydro-1lambda6-thiophen-3-yl)-6-(4-fluorophenyl)-N-[(pyridin-4-yl)methyl]-1H-indole-3-carboxamide] | > 50 |
| CC(C)(O)c1cc(CN(C(=O)c2c[nH]c3cc(-c4ccc(F)cc4)ccc23)C2C=CS(=O)(=O)C2)ccn1 (centres unmarked) [I-424, N-(1,1-dioxo-2,3-dihydro-1lambda6-thiophen-3-yl)-6-(4-fluorophenyl)-N-{[2-(2-hydroxypropan-2-yl)pyridin-4-yl]methyl}-1H-indole-3-carboxamide] | > 50 |
| COc1cc(CN(C(=O)Cc2ccc(-n3cccc3C)cc2F)[C@H]2C=CS(=O)(=O)C2)ccn1 [I-425, N-[(3S)-1,1-dioxo-2,3-dihydro-1lambda6-thiophen-3-yl]-2-[2-fluoro-4-(2-methyl-1H-pyrrol-1-yl)phenyl]-N-[(2-methoxypyridin-4-yl)methyl]acetamide] | > 50 |
| O=C(Cn1cc(Cl)cn1)N(Cc1ccncc1)C1C=CS(=O)(=O)C1 (centres unmarked) [I-427, 2-(4-chloro-1H-pyrazol-1-yl)-N-(1,1-dioxo-2,3-dihydro-1lambda6-thiophen-3-yl)-N-[(pyridin-4-yl)methyl]acetamide] | > 50 |
| O=C(Cc1ccc2oc3ccccc3c2c1)N(Cc1ccncc1)C1C=CS(=O)(=O)C1 (centres unmarked) [I-428, N-(1,1-dioxo-2,3-dihydro-1lambda6-thiophen-3-yl)-2-{8-oxatricyclo[7.4.0.0^{2,7}]trideca-1(13),2,4,6,9,11-hexaen-4-yl}-N-[(pyridin-4-yl)methyl]acetamide] | > 50 |

| Structure (SMILES) | IC50 [µM] |
| --- | --- |
| O=C(Cn1cc(C2CC2)cn1)N(Cc1ccncc1)C1C=CS(=O)(=O)C1 (centres unmarked) [I-429, 2-(4-cyclopropyl-1H-pyrazol-1-yl)-N-(1,1-dioxo-2,3-dihydro-1lambda6-thiophen-3-yl)-N-[(pyridin-4-yl)methyl]acetamide] | > 50 |
| O=C(Cc1cccc2ccccc12)N(Cc1ccncc1)C1C=CS(=O)(=O)C1 (centres unmarked) [I-431, N-(1,1-dioxo-2,3-dihydro-1lambda6-thiophen-3-yl)-2-(naphthalen-1-yl)-N-[(pyridin-4-yl)methyl]acetamide] | > 50 |
| N#CCOc1ccc(CC(=O)N(Cc2ccncc2)C2C=CS(=O)(=O)C2)cc1 (centres unmarked) [I-432, 2-[4-(cyanomethoxy)phenyl]-N-(1,1-dioxo-2,3-dihydro-1lambda6-thiophen-3-yl)-N-[(pyridin-4-yl)methyl]acetamide] | > 50 |
| O=C(Cn1cc2ccccc2n1)N(Cc1ccncc1)C1C=CS(=O)(=O)C1 (centres unmarked) [I-433, N-(1,1-dioxo-2,3-dihydro-1lambda6-thiophen-3-yl)-2-(2H-indazol-2-yl)-N-[(pyridin-4-yl)methyl]acetamide] | > 50 |
| Cc1c(CC(=O)N(Cc2ccncc2)C2C=CS(=O)(=O)C2)nnn1-c1ccccc1 (centres unmarked) [I-434, N-(1,1-dioxo-2,3-dihydro-1lambda6-thiophen-3-yl)-2-(5-methyl-1-phenyl-1H-1,2,3-triazol-4-yl)-N-[(pyridin-4-yl)methyl]acetamide] | > 50 |
| O=C(C(C1CC1)n1cc(-c2ccccc2)cn1)N(Cc1ccncc1)C1C=CS(=O)(=O)C1 (centres unmarked) [I-435, 2-cyclopropyl-N-(1,1-dioxo-2,3-dihydro-1lambda6-thiophen-3-yl)-2-(4-phenyl-1H-pyrazol-1-yl)-N-[(pyridin-4-yl)methyl]acetamide] | > 50 |
| Cc1cnn(CC(=O)N(Cc2ccncc2)C2C=CS(=O)(=O)C2)c1 (centres unmarked) [I-436, N-(1,1-dioxo-2,3-dihydro-1lambda6-thiophen-3-yl)-2-(4-methyl-1H-pyrazol-1-yl)-N-[(pyridin-4-yl)methyl]acetamide] | > 50 |
| O=C(Cc1cccc(C2CC2)c1)N(Cc1ccncc1)C1C=CS(=O)(=O)C1 (centres unmarked) [I-437, 2-(3-cyclopropylphenyl)-N-(1,1-dioxo-2,3-dihydro-1lambda6-thiophen-3-yl)-N-[(pyridin-4-yl)methyl]acetamide] | > 50 |
| O=C(Cc1csc(C2CC2)n1)N(Cc1ccncc1)C1C=CS(=O)(=O)C1 (centres unmarked) [I-438, 2-(2-cyclopropyl-1,3-thiazol-4-yl)-N-(1,1-dioxo-2,3-dihydro-1lambda6-thiophen-3-yl)-N-[(pyridin-4-yl)methyl]acetamide] | > 50 |
| O=C(CC12CC(c3ccccc3)(C1)C2)N(Cc1ccncc1)C1C=CS(=O)(=O)C1 (centres unmarked) [I-439, N-(1,1-dioxo-2,3-dihydro-1lambda6-thiophen-3-yl)-2-{3-phenylbicyclo[1.1.1]pentan-1-yl}-N-[(pyridin-4-yl)methyl]acetamide] | > 50 |
| O=C(Cc1nc(C2CCCC2)cs1)N(Cc1ccncc1)C1C=CS(=O)(=O)C1 (centres unmarked) [I-440, 2-(4-cyclopentyl-1,3-thiazol-2-yl)-N-(1,1-dioxo-2,3-dihydro-1lambda6-thiophen-3-yl)-N-[(pyridin-4-yl)methyl]acetamide] | > 50 |
| Cc1ccnn1-c1ccc(CC(=O)N(Cc2ccncc2)C2C=CS(=O)(=O)C2)cc1 (centres unmarked) [I-441, N-(1,1-dioxo-2,3-dihydro-1lambda6-thiophen-3-yl)-2-[4-(5-methyl-1H-pyrazol-1-yl)phenyl]-N-[(pyridin-4-yl)methyl]acetamide] | > 50 |
| O=C(Cn1nnc(-c2ccccc2)n1)N(Cc1ccncc1)C1C=CS(=O)(=O)C1 (centres unmarked) [I-442, N-(1,1-dioxo-2,3-dihydro-1lambda6-thiophen-3-yl)-2-(5-phenyl-2H-1,2,3,4-tetrazol-2-yl)-N-[(pyridin-4-yl)methyl]acetamide] | > 50 |
| Cn1c(CC(=O)N(Cc2ccncc2)C2C=CS(=O)(=O)C2)nnc1-c1ccccc1 (centres unmarked) [I-443, N-(1,1-dioxo-2,3-dihydro-1lambda6-thiophen-3-yl)-2-(4-methyl-5-phenyl-4H-1,2,4-triazol-3-yl)-N-[(pyridin-4-yl)methyl]acetamide] | > 50 |
| O=C1CCCN1c1ccc(CC(=O)N(Cc2ccncc2)C2C=CS(=O)(=O)C2)cc1 (centres unmarked) [I-444, N-(1,1-dioxo-2,3-dihydro-1lambda6-thiophen-3-yl)-2-[4-(2-oxopyrrolidin-1-yl)phenyl]-N-[(pyridin-4-yl)methyl]acetamide] | > 50 |

Same assay, conditions: ADP-Glo_hWRN_IC50, 0.15 nM WRN, 5 μM ATP, 0.1 nM DNA duplex, 15 min preincubation, 60 min at 25° C., pH 7.5, 1% DMSO

| Structure (SMILES) | IC50 [µM] |
| --- | --- |
| O=C(CN1CC=C(c2ccccc2)CC1)N(c1ccccc1)C1C=CS(=O)(=O)C1 (centres unmarked) [I-430, N-(1,1-dioxo-2,3-dihydro-1lambda6-thiophen-3-yl)-N-phenyl-2-(4-phenyl-1,2,3,6-tetrahydropyridin-1-yl)acetamide] | > 50 |
